From patent US11932898B2, “Precision therapeutic biomarker screening for cancer” (UNIVERSITY OF MIAMI, priority 2016, dated 2024)

Assays:
[1] = tested on: soft tissue cancer; conditions: soft tissue cancer resistant to standard chemotherapy (doxyrubicin); small sample size phase II study; cited from earlier work
[2] = tested on: human tumor cell lines; experiment: component-wise IC50 values of the SANGER drug sensitivity dataset, clustered by generalized FMMR cell line components; format: cell-based; conditions: for magnitude of IC50s for overlapping component 12: component-wise IC50 boxplots, FIG. 11A-11E, cell line components 1, 2 and 12
Source text: Cancer cell lines have frequently been used as a convenient way of conducting such studies. For a systematic search of therapeutic biomarkers to a variety of cancer drugs, Garnett et al. (2012) screened 639 human tumor cell lines which represent much of the tissue-type and genetic diversity of human cancers with 130 drugs. These drugs, including approved drugs, drugs in development as well as experimental tool compounds, cover a wide range of targets and processes involved in cancer biology. In the Garnett et al. work, a range of 275-507 cell lines were screened for each drug. The effect of a 72 h drug treatment on cell viability was used to derive measures of drug sensitivity, including the half-maximal inhibitory concentration (IC50). In addition, the cell lines underwent sequencing of 64 known cancer genes, genome-wide analysis of copy number gains and losses, and expression profiling of 14,500 genes.
We applied the innovative techniques herein to analyzing the SANGER high throughput drug sensitivity dataset for cancer. […] The responses, made up with IC50 values from pairwise drug-cell-line screening, has some missing values. Therefore the data was first filtered by removing cell lines for which less than 50% of the drugs were tested, resulting in 591 cell lines remaining. In the remaining data, about 37.4% of the cell lines are with missing values. These missing values are imputed via the random forest imputation algorithm (Ishwaran, Kogalur, Blackstone and Lauer 2008; Stekhoven and Buhlmann 2012).
In order to identify patterns of cancer-specific therapeutic biomarkers, we employed method gEMseplasso in the analysis. […]
In the second step, the process uses an affinity-propagation clustering (APC) algorithm (Frey and Dueck 2007) to group the 140 drugs based on results from the first step. […] The pair-wise similarity matrix required by the algorithm as input data is calculated from the Euclidean distance between Za and Zb. […] The pair-wise similarity matrix is calculated from the Euclidean distance between Bk^a and Bk^b for k=1, . . . , 3. […]

[3] = tested on: chronic myeloid leukemia (CML); conditions: cited from earlier work

For Nc1ccn([C@@H]2O[C@H](CO)[C@@H](O)C2(F)F)c(=O)n1 [Gemcitabine], the “effectiveness in soft tissue cancer” value [1] is listed as “effective”.

For COc1cc2ncn(-c3cc(OCc4ccccc4C(F)(F)F)c(C(N)=O)s3)c2cc1OC [GW843682X], the “component with highest IC50s” value ([2]; among cell line components 1, 2, and 12) was “component 2” and the “magnitude of IC50s for overlapping component 12” value [2] was “between those for component 1 and 2”.

For Nc1ccccc1NC(=O)c1ccc(CNC(=O)OCc2cccnc2)cc1 [MS.275], the “magnitude of IC50s for overlapping component 12” value [2] was “between those for component 1 and 2”.

In the case of Cc1ccc(NC(=O)c2ccc(CN3CCN(C)CC3)cc2)cc1Nc1nccc(-c2cccnc2)n1 [imatinib], the blood counts ([3]; CML patients who had exhausted standard treatment options, tested in 1998) is given as “returning to normal” and the five-year survival rate ([3]; CML patients) is given as 95%.
